Assay results as given in patent US7666843B2, “Methods and compositions for treatment of neurological disorder” (Children's Medical Center Corporation, priority 2002, dated 2010).
“Also recorded” adds a separate entry of the source. Read-outs that look alike come from different tables or passages of the source.

What was measured:
Assay type in all cases: cell-based
[1] = tested on: goldfish retinal ganglion cells; assay: Goldfish retinal ganglion cell culture, axon outgrowth bioassay; conditions: goldfish RGCs; for effect on axon growth induced by AF-1: 6-TG 20 μM, NBTI 20 μM, H89 5 μM, FIG. 2, 4; for effect on axon growth induced by AF-1 / axon growth induced by cAMP-elevating agent on its own: Sp-cAMPs 150 μM; for axon growth induced by cAMP-elevating agent on its own: FIG. 4; for axon outgrowth in response to monosaccharides: sugar alone, 50 or 100 μM, D-configuration, FIG. 7a
Method: Goldfish retinal ganglion cells are prepared as described in PCT application serial no. PCT/US98/03001, the contents of which are incorporated herein by reference, and contacted with a hexose derivative such as mannose. The ability of the hexose derivative to stimulate axonal outgrowth from the goldfish retinal ganglion cells is monitored as described in PCT application serial no. PCT/US98/03001.
Goldfish retinal ganglion cell cultures. Mammalian AF-1 was initially characterized in bioassays using dissociated goldfish retinal ganglion cells (RGCs). In brief, Comet variety goldfish (Mt. Parnell Fisheries, PA) were dark-adapted, cooled to 4° C., and killed by cervical transection. Retinas were dissected and dissociated by incubation in papain followed by a series of trituration steps that result in an RGC-enriched cell suspension (Schwartz & Agronoff,; Schwalb et al., 1995). Approximately 500 RGCs per well were plated together with the experimental samples to be tested in defined, serum-free media containing Leibovitz' L15 media (Gibco BRL) plus N1 and N2 supplements (Bottenstein, Saito), antioxidants, and bovine serum albumin as described in detail elsewhere (Schwalb et al., 1995). In each experiment, 4 wells of each sample were distributed in 24-well plates in a blinded fashion so that the person evaluating axon outgrowth was unaware of the type of sample present in each well. Experiments included a positive control (previously validated goldfish AF-1 or inosine) and a negative control (defined media alone), likewise distributed on the plate in quadruplicate in a blinded fashion. After 6 days in culture at 21° C., axon outgrowth, operationally defined as the percent of RGCs that extended an axon≧5 cell diameters in length, was evaluated in approximately 150 consecutively encountered RGCs per well. […] Data are presented as normalized means ± SEM. All experiments were repeated at least 3 times.

[2] = tested on: goldfish retinal ganglion cells; assay: Goldfish retinal ganglion cell culture, cell survival; conditions: MH 10 mM, sugars at low micromolar concentrations
Method: Goldfish retinal ganglion cell cultures. Mammalian AF-1 was initially characterized in bioassays using dissociated goldfish retinal ganglion cells (RGCs). In brief, Comet variety goldfish (Mt. Parnell Fisheries, PA) were dark-adapted, cooled to 4° C., and killed by cervical transection. Retinas were dissected and dissociated by incubation in papain followed by a series of trituration steps that result in an RGC-enriched cell suspension (Schwartz & Agronoff,; Schwalb et al., 1995). Approximately 500 RGCs per well were plated together with the experimental samples to be tested in defined, serum-free media containing Leibovitz' L15 media (Gibco BRL) plus N1 and N2 supplements (Bottenstein, Saito), antioxidants, and bovine serum albumin as described in detail elsewhere (Schwalb et al., 1995). In each experiment, 4 wells of each sample were distributed in 24-well plates in a blinded fashion so that the person evaluating axon outgrowth was unaware of the type of sample present in each well. Experiments included a positive control (previously validated goldfish AF-1 or inosine) and a negative control (defined media alone), likewise distributed on the plate in quadruplicate in a blinded fashion. After 6 days in culture at 21° C., axon outgrowth, operationally defined as the percent of RGCs that extended an axon≧5 cell diameters in length, was evaluated in approximately 150 consecutively encountered RGCs per well. Data were analyzed by averaging axon growth in the 4 wells for each sample, subtracting the level of growth found in negative controls (typically 3-5%), and normalizing by the net growth in positive controls (usually 20-40%). Data are presented as normalized means ± SEM. All experiments were repeated at least 3 times.

[3] = tested on: rat retinal ganglion cells; assay: Rat retinal ganglion cell culture, axon outgrowth; conditions: rat RGCs; for axon outgrowth, agent by itself: 3 days, no other factor added, forskolin 5 μM in FIG. 9a; for effect on axon growth induced by the low molecular weight vitreous factor (VE<3): FIG. 3a; for axon outgrowth in the presence of forskolin: compared to forskolin alone, glucose up to 5 mM, mannose-6-phosphate up to 10 mM, 9c
From the text: (§1) Rat retinal ganglion cell cultures. Retinal ganglion cells were identified by retrograde labeling with Fluorogold (FG: Fluorochrome, Inc.). […] After allowing 7 days for FG to be retrogradely transported up the optic nerve, rats were killed, eyes were removed, and the retinas dissected. Retinas were dissociated with papain treatment followed by trituration. Mixed cultures containing 100-150 FG-labeled RGCs per well were maintained in 24 well plates in a defined, serum-free media (Minimal Essential Media containing NaHCO3,) at 37° C. at 5% CO2 for 3 days.

[4] = tested on: rat retinal ganglion cells; assay: Rat retinal ganglion cell culture, cell survival
From the text: as §1

For O=C(CO)[C@@H](O)[C@@H](O)[C@H](O)[C@H](O)CO [MH, mannoheptulose], the “effect on mannose-induced axon outgrowth” value ([1]; KT5720 1 μM, MH 10 mM, dBcAMP, late fraction with 50 μM mannose) was “had no effect on outgrowth induced by glucose or mannose; also recorded: has no effect on outgrowth induced by glucose or mannose”, the “effect on glucose-induced axon outgrowth” value ([1]; glucose 10 μM (50 μM with late fraction), dBcAMP 1 mM, forskolin 10 μM, Rp-cAMPs 100 μM, 3-O-MG 100:1, 2-DG 1 mM, MH 10 mM) was “had no effect on outgrowth induced by glucose or mannose; also recorded: has no effect on outgrowth induced by glucose or mannose” and the “cell survival (viable RGCs per field)” value [2] was “detrimental to cell survival; also recorded: decreases cell survival”.

With Nc1ncnc2c1ncn2[C@@H]1O[C@@H]2COP(O)(=S)O[C@H]2[C@H]1O (stereo partly shown) [Sp-cAMPs] the “effect on axon growth induced by AF-1” value ([1]; forskolin 10 μM, Rp-cAMPs 100 μM) was “non-statistically significant decrease in outgrowth”, the “effect on axon growth induced by AF-1” value ([1]; forskolin 10 μM, Rp-cAMPs 100 μM, listed as Sp-cAMP-s) was “not enhanced; also recorded: reduced the level of outgrowth” and the “axon growth induced by cAMP-elevating agent on its own” value ([1]; forskolin 10 μM) was “Neither forskolin (10 μM) nor Sp-cAMPs (150 μM) induced growth on its own”. The “axon growth induced by cAMP-elevating agent on its own” value ([1]; forskolin 10 μM, listed as Sp-cAMP-s) was “Neither forskolin nor Sp-cAMP-s by itself stimulated axon growth”, the “axon outgrowth, agent by itself” value [3] was “little effect on outgrowth” and the “effect on axon growth induced by the low molecular weight vitreous factor (VE<3)” value [3] was “greatly potentiated”. For the same molecule, the “effect on axon growth induced by the low molecular weight vitreous factor (VE<3)” value ([3]; listed as Sp-cAMP-s) was “strongly potentiates”.

In the case of O=C[C@H](O)[C@@H](O)[C@H](O)[C@H](O)CO [glucose, D-glucose], the “axon outgrowth in response to monosaccharides” value [1] is reported as “stimulated as much outgrowth as the low molecular weight factor; also recorded: induced axon growth”, the “level of axon growth relative to that seen with the vitreous extract” value ([1]; sugar by itself, FIG. 7d) is reported as “about 70%” and the “cell survival (viable RGCs per field)” value [2] is reported as “no effect on cell survival; also recorded: not related to any changes in cell survival”. For the same molecule, the “axon outgrowth in the presence of forskolin” value (shortened to “axon outgrowth in the presence”) ([3]; with forskolin, FIG. 9a) was “failed to induce growth above the level of forskolin alone; also recorded: no effect whatsoever”, the “axon outgrowth in the presence” value ([3]; with forskolin, FIG. 9a, listed as Glucose) was “inactive” and the “effect of added glucose on mannose-induced growth” value ([3]; with forskolin, high concentrations of glucose, FIG. 9a) was “not augmented further; also recorded: not altered”.

O=C[C@@H](O)[C@@H](O)[C@H](O)[C@H](O)CO [mannose, D-mannose] was tested, and the EC50 ([1]; Carassius auratus, FIG. 7c, read-out: ED50 of axon outgrowth) was about 10 µM, the “concentration at which the effect on axon outgrowth saturates” value ([1]; FIG. 7c) was 25 to 50 µM and the “axon outgrowth in response to monosaccharides” value [1] was “stimulated as much outgrowth as the low molecular weight factor; also recorded: induced axon growth”. For the same molecule, the “cell survival (viable RGCs per field)” value [2] was “no effect on cell survival; also recorded: not related to any changes in cell survival”, the “axon outgrowth, agent by itself” value [3] was “marginally significant response” and the “axon outgrowth, agent by itself” value ([3]; listed as D-mannose) was “little effect”. For the same molecule, the “axon outgrowth, agent by itself” value ([3]; listed as Mannose) was “small, marginally significant level of outgrowth”, the “increase of axon outgrowth over baseline” value ([3]; in the presence of forskolin) was 3 fold and the EC50 ([3]; in the presence of forskolin, data not shown, read-out: ED50 of axon outgrowth) was about 10 µM. For the same molecule, the “axon outgrowth in the presence” value ([3]; with forskolin, FIG. 9a) was “more than doubled the level axon growth induced by forskolin alone; also recorded: striking increase in outgrowth; also recorded: respond strongly”, the “cell survival (viable RGCs per field)” value [4] was “not related to cell survival; also recorded: independent of any changes in cell survival” and the “cell survival (viable RGCs per field)” value ([4]; listed as D-mannose) was “unrelated to changes in cell survival”.
